A word on the IC50: it is the concentration needed to halve the response being measured. The term TGI denotes the reduction of tumour growth relative to the control group.

One experiment concerns the target T1, GDP-bound NRAS WT (Homo sapiens, UniProt P01111).
T1 construct: His-tagged NRAS WT (aa 1–172); made in house; host or cells: Escherichia coli
Briefly: SOS1-mediated guanine nucleotide exchange assay (TR-FRET). It counts as biochemical. On the technique in general: TR-FRET usually uses a lanthanide donor and a delayed reading to cut background.

The target of a further experiment is T2, GppNp-bound NRAS WT (Homo sapiens, UniProt P01111).
T2 construct: His-tagged NRAS WT (aa 1–172); made in house; host or cells: Escherichia coli
Briefly: GppNp-loaded RAS and cRAF interaction assay (HTRF). It counts as biochemical.

For experiment [1], the system named is NCI-H1373 lung cancer xenograft. Briefly: Cell line–derived xenograft study. It counts as in vivo, BALB/c-nu mice. Conditions: NCI-H1373 lung cancer xenograft model; single agents or combination, orally once a day. From the text: Female BALB/c nude mice (CAnN.Cg-Foxn1^nu/Crl, RRID: IMSR_CRL:194) were obtained from Beijing Vital River Laboratory Animal Technology Co., Ltd. Female BALB/c-nu mice (BALB/cAnSlacNifdc-nu) were obtained from SPF (Beijing) Biotechnology Co., Ltd. Female NCG mice (NOD/ShiLtJGpt-Prkdc^em26Cd52Il2rg^em26Cd22/Gpt) were obtained from GemPharmatech. Subcutaneous tumors were induced by injecting cells in PBS containing 50% BD Matrigel (Corning) in the right flank of female BALB/c-nu mice (NCI-H1373, 5 × 10^6 cells), female BALB/c nude mice (MIA PaCa-2, 1 × 10^7 cells), or female NCG mice (NCI-H358, 5 × 10^6 cells).

The target of a further experiment is T3, GDP-bound HRAS WT (Homo sapiens, UniProt P01112).
T3 construct: His-tagged HRAS WT (aa 1–166); made in house; host or cells: Escherichia coli
Nature of the experiment: SOS1-mediated guanine nucleotide exchange assay (TR-FRET). It counts as biochemical. The note with it: GDP-bound HRAS WT; compound pre-incubation 25°C, 60 min; read-out: IC50.

Experiment [2] concerns Ba/F3 cells carrying HRAS p.G12C. Nature of the experiment: Ba/F3-engineered cell line viability. The format is cell-based. Conditions: Mus musculus, BaF3, 144 h; Ba/F3 HRAS p.G12C; 6 days of treatment; read-out: Cell viability IC50. Here is the method: (§1) The inhibitory activity of compounds on Ba/F3-engineered cell line viability was tested by Kyinno Biotechnology. Other cell viability assays on human cancer cell lines were conducted in-house. Cells were seeded in 96-well plates and incubated overnight, followed by treatment with various concentrations of compounds or solvent control for 6 days. Cell viability was detected using either the CellTiter-Glo (CTG) luminescent cell viability assay or the CTG 3D cell viability assay (Promega) for 2D and 3D CTG assays, respectively. […] The cell density is indicated in Supplementary Table S3.

The subject of experiment [3] is Ba/F3 cells carrying NRAS p.G12C. Briefly: Ba/F3-engineered cell line viability. It counts as cell-based. Conditions: Mus musculus, BaF3, 144 h; Ba/F3 NRAS p.G12C; 6 days of treatment; read-out: Cell viability IC50. Here is the method: as §1
In the next experiment the target is T4, GppNp-bound HRAS WT (Homo sapiens, UniProt P01112).
T4 construct: His-tagged HRAS WT (aa 1–166); made in house; host or cells: Escherichia coli
Nature of the experiment: GppNp-loaded RAS and cRAF interaction assay (HTRF). The note with it: GppNp-bound HRAS WT and cRAF RBD interaction; read-out: IC50. The format is biochemical.

For experiment [4], the system named is CR6256 PDX tumors rebounding after sotorasib treatment. Nature of the experiment: PDX study on tumors regrown under sotorasib. The format is in vivo, mice. The note with it: after 63 days of 100 mg/kg sotorasib; then 100 mg/kg sotorasib, 100 mg/kg glecirasib, 50 mg/kg cetuximab or combination.

Read-outs that look alike come from different tables or passages of the source.

T2 sequence (P01111 1-172): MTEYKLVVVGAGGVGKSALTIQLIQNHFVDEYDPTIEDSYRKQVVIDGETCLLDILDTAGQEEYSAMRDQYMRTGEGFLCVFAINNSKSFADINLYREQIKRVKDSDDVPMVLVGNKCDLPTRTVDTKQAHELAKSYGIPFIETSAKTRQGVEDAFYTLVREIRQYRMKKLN
T1 sequence (P01111 1-172): as above
T3 sequence (P01112 1-166): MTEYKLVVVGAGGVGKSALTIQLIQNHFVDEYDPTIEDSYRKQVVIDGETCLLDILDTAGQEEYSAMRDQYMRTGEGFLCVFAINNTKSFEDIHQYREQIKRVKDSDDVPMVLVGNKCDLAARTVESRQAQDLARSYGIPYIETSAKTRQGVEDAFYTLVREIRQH
T4 sequence (P01112 1-166): as above

Regarding `C=C(F)C(=O)N1CCN(c2nc(OC[C@@H]3CCCN3C)nc3c2CCN(c2cccc4cccc(Cl)c24)C3)C[C@@H]1CC#N` [Adagrasib], the IC50 at GDP-bound NRAS WT and at GppNp-bound NRAS WT was above 10 µM throughout.

`Nc1nccc(Sc2cnc(N3CCC4(CC3)Cc3ncccc3[C@H]4N)cn2)c1Cl` [JAB-3312]: the TGI in experiment [1] is 64%.

As to `C=CC(=O)N1CCN(c2nc(=O)n(-c3c(C)ccnc3C(C)C)c3nc(-c4c(O)cccc4F)c(F)cc23)[C@@H](C)C1` [Sotorasib, reference compound], the IC50 on GDP-bound HRAS WT is above 10 µM; on GDP-bound NRAS WT (GDP-bound NRAS WT, compound pre-incubation 25°C, 60 min, read-out: IC50), above 10 µM; at GppNp-bound NRAS WT (GppNp-bound NRAS WT and cRAF RBD interaction, read-out: IC50), above 10 µM; in experiment [2], 0.0271 µM; in experiment [3], 0.0147 µM; on GppNp-bound HRAS WT, above 10 µM. Moreover, the “tumor response of rebound tumors” value in experiment [4] is listed as “continued to grow”.

(Values after PMC12076188 (Cancer Research Communications, 2025).)
